Experimental data as given in patent US20250090557A1 (priority 2020, published 2025).

Experiments:
[1] = mice, tissues including liver and kidney, ≥10 days oral supplementation; cited from earlier work
SARS-CoV-2 [2] = assay: Post-exposure prophylaxis in two household-exposed parents (case report); assay type: in vivo, human
Source text: FIG. 8-a show the timeline of exposure, symptoms and diagnostic tests in household. Two parents [[…], A1 with history of chronic myelogenous leukemia (CML) and healthy parent 39 years, A2] were notified on Dec. 5, 2020 [defined as day 5 (D5)], that the schoolteacher (T1) of their child (C1) tested positive for SARS-CoV-2 and developed symptoms of Covid-19. C1 had 6-h exposure to T1 on November 30 (with masks) (D0). The family had no other exposure to any other person between November 20-30 (D-10 to D0) given Thanksgiving Day on November 26 (D-4). Several children and parents from the same school class were infected with Covid-19 within the first 2 weeks of December. C1 developed fever (100.4° F.;38° C.) and fatigue 2.5 days after exposure (DO) that lasted 3 days (D2-D5) and remained asymptomatic since then. The second child (C2) was asymptomatic until D12 when they developed fever (100.4° F.;38° C.), fatigue and coryza on D12-D14. A1 and A2 started Mito-MES on D4. […] A1, A2, C1 and C2 had fifteen (in total) negative NP SARS-CoV-2 PCR and each parent had 3 negative SARS-CoV-2 IgG serology over a period of 6 weeks (last NP PCR was on D42 and last SARS-CoV-2 IgG serology was on D45). The well-defined epidemiologic history around a major holiday and the timing (3-7 days) of development of symptoms in both children, confirmed that they both had Covid-19.
Two parents ([…], A1, and parent 39 years, A2) residing in Los Angeles, California were notified on Dec. 5, 2020 (defined as day 5 (D5); FIG. 8-a, C), that the schoolteacher (T1) of their child (C1) tested positive for SARS-CoV-2 and developed symptoms of Covid-19. C1 had 6-h exposure to T1 on November 30 (with masks) (DO). The family had no other exposure to any other person between November 20-30 (D-10 to DO) given Thanksgiving Day on November 26 (D-4). […]
One important consideration with COVID-19 testing is that it is often unclear how exactly the NP swab was obtained (by healthcare worker or not and whether the posterior or anterior nasopharynx were assessed). […]

STING = STING protein levels in Calu3 cells (flow cytometry); assay type: cell-based, human; details: SARS-CoV-2 infected Calu3 cells, data not shown
IL-1β = assay type: cell-based, human; details: infected Calu3 supernatants
Nrf2 = Nrf2 protein levels in Calu3 cells (flow cytometry); assay type: cell-based, human; details: infected and uninfected Calu3, pretreatment, data not shown
cleaved caspase 3 = assay type: cell-based, African green monkey; details: Vero
SARS-CoV-2 [3] = assay type: cell-based
TOM70 = TOM70 protein levels in Calu3 cells (flow cytometry, immunofluorescence); assay type: cell-based, human
Keap1 = Keap1 protein levels in Calu3 cells (flow cytometry); assay type: cell-based, human; details: infected and uninfected Calu3, pretreatment, data not shown
MAVS = MAVS protein levels in Calu3 cells (flow cytometry); assay type: cell-based, human; details: total and SARS-CoV-2 infected Calu3 cells, data not shown
MX1 = assay type: cell-based, human; details: infected Calu3, vs vehicle treated
SARS-CoV-2 [4] = assay: SARS-CoV-2 infection of air-liquid interface human airway epithelium cultures (flow cytometry); assay type: cell-based; details: 100 nM, 72 h
Calu3 cells = assay: Seahorse mitochondrial respirometry and cellular bioenergetics in infected Calu3 cells
Procedure: Flow cytometry was used to determine the cellular content of Calu3 cells for mitochondrial reactive oxygen species (mito-ROS) based on the median fluorescence intensity (MFI) of the fluorochrome MitoSOX Red and was compared to a negative cell population (fluorescence minus one negative control for staining) (ΔMFI). Flow cytometry was used to determine the percent of SARS-CoV-2 infected Calu3 cells positive for MitoSOX Red. Calu3 and Vero cells were treated with DMSO vehicle control (Ctrl) or the mitochondrial antioxidants MitoTEMPO (25-1000 nM) (72 h) or Mito-MES (25-1000 nM) (72 h) and were infected with a fluorescent mNeonGreen SARS-CoV-2 (icSARS-CoV-2-mNG) (MOI 0.3) (48 h). Immunofluorescent analysis of viral replication and cellular oxidative stress was performed at 48 h post-infection. […] Seahorse XF Analyzer was used to determine mitochondrial respirometry and cellular bioenergetics [oxygen consumption rate (OCR) and extracellular acidification rate (ECAR)] of live Calu3 cells treated with Mito-MES (25-1000 nM) or vehicle control (ctrl) (72 h) and infected with SARS-CoV-2 (MOI 0.1) (48 h). […] Viral replication was determined by TCID50-assay (FIG. 3-d), cell cytotoxicity was assessed by the XTT assay in uninfected cells treated with dTPP (0.01-10 μM) (72 h) (FIG. 3-e). […]

IL-6 = assay type: cell-based, African green monkey
[5] = system: ACE2, CD147, NRP1 and TMPRSS2; assay: Host entry factor protein levels in Calu3 cells (flow cytometry); assay type: cell-based, human; details: Calu3, compared to uninfected cells, data not shown
[6] = humans, doses up to at least 80 mg/day for at least a year; cited from earlier work
[7] = cited from earlier work
SARS-CoV-2 [8] = assay: SARS-CoV-2 infection of HEK293T-hACE2 cells (flow cytometry); assay type: cell-based; details: HEK293T-hACE2, 100 nM, 72 h

## COC1=C(OC)C(=O)C(CCCCCCCCCC[P+](c2ccccc2)(c2ccccc2)c2ccccc2)=C(C)C1=O.CS(=O)(=O)[O-] [Mito-MES, 10-(4,5-dimethoxy-2-methyl-3,6-dioxo-1,4-cyclohexadienyl) decyl triphenylphosphonium methanesulfonate]
[1]
  accumulation in tissues: 50 to 700 pmol/g (wet weight)
SARS-CoV-2 [2]; both parents, 6 timepoints over 6 weeks
  inflammation markers in plasma: normal CRP, ferritin and IL-6 plasma levels
SARS-CoV-2 [2]; each parent, three timepoints over 5 weeks
  plasma IgG to SARS-CoV-2 S1 protein: undetectable levels of plasma IgG to SARS-CoV-2 S1 protein
SARS-CoV-2 [2]; two parents, 20 mg/day oral, 6 weeks, repeated household exposure
  symptoms and virological/serological confirmation of infection: remained asymptomatic and without virological and serological confirmation of infection
STING
  STING protein levels: did not impact STING
IL-1β
  secretion of IL-1β (Luminex): tended (p=0.09) to reduce the secretion of IL-IP
Nrf2
  protein levels of Nrf2: did not impact protein levels of Nrf2
Cleaved caspase 3; 100 nM
  percent of infected cells positive for cleaved caspase 3 and MFI per cell (flow cytometry): inhibits or reduces SARS-CoV-2-induced increase
Cleaved caspase 3; 10-1000 nM
  SARS-CoV-2-induced cleavage of caspase 3 (immunofluorescence): reduced by Mito-MES treatment
SARS-CoV-2 [3]; Calu3
  concentration at which potent antiviral activity is exhibited (immunofluorescence and PCR): ≤ 10 nM
SARS-CoV-2 [3]; Calu3, 10 nM Mito-MES alone
  viral titers vs vehicle control (TCID50): reduced viral titers
SARS-CoV-2 [3]; Calu3, 100 nM and 1000 nM
  reduction of release of progeny virus (TCID50 of cell supernatants): > 2 logs
TOM70
  TOM70 protein levels (flow cytometry): increased TOM70 protein levels
  TOM70 protein levels (immunofluorescence): dose-dependent increase in TOM70 protein levels
Keap1
  protein levels of Keap: reduced protein levels of Keap
MAVS
  MAVS protein levels: did not modulate MAVS protein levels
MX1
  MX1 protein levels: increased MX1 protein levels
SARS-CoV-2 [4]; ALI HAE cultures
  percent of SARS-CoV-2 infected FOXJ1+ ciliated epithelial cells (flow cytometry): significantly reduced the percent of SARS-CoV-2 infected human FOXJ1^+ ciliated epithelial cells
SARS-CoV-2 [4]; primary HAE ALI cultures
  percent of SARS-CoV-2 infected human lung epithelial cells (flow cytometry): significantly reduced the percent of SARS-CoV-2 infected human lung epithelial cells
Calu3 cells; Calu3, 1000 nM
  ROS: increased ROS
Calu3 cells; Calu3, 50-1000 nM
  mitochondrial respirometry: reduced mitochondrial respirometry
IL-6
  secretion of IL-6 resulting from SARS-CoV-2 infection (ELISA): attenuated the increase in secretion of IL-6
[5]
  protein levels of ACE2, TMPRSS2, NRP1 and CD147: Neither SARS-CoV-2 infection nor Mito-MES significantly modulates
[6]
  adverse events: without any serious adverse events
[7]; chronic supplementation about 40-80 mg/day, after about 10 days
  average elevation of fasting plasma concentrations: about 5 ng/mL
[7]; humans, single 40 mg oral dose, after 24 h
  plasma concentration: about 2 ng/ml
SARS-CoV-2 [8]
  percent of SARS-CoV-2 infected cells (flow cytometry): significantly reduced the percent of SARS-CoV-2 infected human non-cancerous HEK293T epithelial cells
